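A five-concentration, 48-hour dose response in 96-well plates underlies each endpoint, interpolated linearly between surrounding concentrations. TGI marks complete inhibition of growth.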

Here are results for 3 compounds from PubChem BioAssay (NCI).

Some test systems named below: HCT-15 colon; MDA-N; DU-145 prostate; MOLT-4 leukemia; MDA-MB-231 breast; SN12C renal; KM12 colon; HCT-116 colon; SK-MEL-5 melanoma; U251 CNS; DLD-1 colon; MALME-3M melanoma; SK-OV-3 ovarian; OVCAR-4 ovarian; HT29 colon; HCC-2998 colon; HS 578T breast; ACHN renal; CCRF-CEM leukemia; SF-268 CNS.
What all share (experiment): growth of human tumour cells (NCI), 48 h

`CN(C)CC1CCCC(CN2CCCCC2)C1=O` (configuration not stated): the TGI worked out at 27.9 µM with HCT-15 colon; 27.5 µM in the assay with MDA-N; 32.5 µM in the assay with DU-145 prostate; 12.5 µM with MOLT-4 leukemia; 28.3 µM in the assay on MDA-MB-231 breast; 16.8 µM with SN12C renal. For the same compound, the TGI in the assay on KM12 colon is 44.9 µM; in the assay with HCT-116 colon, 7.53 µM; in the assay on SK-MEL-5 melanoma it was 33.5 µM; in the assay with U251 CNS it was above 66.9 µM; in the assay on DLD-1 colon it was 8.92 µM; with MALME-3M melanoma, 6.5 µM. The TGI is above 100 µM in the assay on SK-OV-3 ovarian; 7.75 µM in the assay with OVCAR-4 ovarian; 25.1 µM in the assay with HT29 colon; 33.4 µM in the assay with HCC-2998 colon; 59 µM with HS 578T breast; 13.6 µM with ACHN renal. Further, the TGI came to 5.48 µM in the assay on CCRF-CEM leukemia and 40.2 µM with SF-268 CNS.
As to `O=C(CSc1nnc(Cc2ccccc2)o1)Nc1cccc(Cl)c1`, the TGI in the assay on HCT-15 colon, with MOLT-4 leukemia, with SN12C renal, in the assay with KM12 colon, in the assay on HCT-116 colon and with SK-MEL-5 melanoma was above 100 µM in each case. Moreover, the TGI in the assay on U251 CNS, in the assay with DLD-1 colon, in the assay on MALME-3M melanoma, in the assay with SK-OV-3 ovarian, with OVCAR-4 ovarian and with HT29 colon was above 100 µM each time. The TGI with HCC-2998 colon, with ACHN renal, in the assay on CCRF-CEM leukemia and with SF-268 CNS was above 100 µM throughout.
For `C=C1C(=O)OC2/C=C(\C)C3OC3/C=C(/C(=O)OC)C(O)C(OC(=O)C3(C)OC3C)C12` (configuration not stated), the TGI in the assay with HCT-15 colon came to 3.78 µM; in the assay on MOLT-4 leukemia, 4.05 µM; in the assay with SN12C renal, 5.64 µM; with KM12 colon, 11.2 µM; with HCT-116 colon, 2.43 µM; with SK-MEL-5 melanoma it was 3.42 µM. Further, the TGI in the assay on U251 CNS came out at 16.8 µM; in the assay on DLD-1 colon, 2.94 µM; in the assay on MALME-3M melanoma, 3.21 µM; in the assay on SK-OV-3 ovarian, 26.4 µM; in the assay on OVCAR-4 ovarian, 8.77 µM; in the assay with HT29 colon, 3.63 µM. Also, the TGI with HCC-2998 colon worked out at 4.66 µM; with ACHN renal it was 10.7 µM; in the assay with CCRF-CEM leukemia, 2.63 µM; with SF-268 CNS, 29.9 µM.
